Data from patent US20250367084A1, “Micellar Composition” (Phytoceutical Limited, priority 2022, published 2025).

Legend:
[1] = cited from earlier work
[2] = system: adult human dermal fibroblast (HDFa) cells; test: Cytotoxicity of retinol (Presto Blue / WST-1); format: cell-based; conditions: 24 h exposure
Method: The cytotoxicity of retinol was determined.
Experiment 1: A solution of retinol (20 mg/mL) in ethanol (absolute) was prepared. The solution was diluted to 2 mg/mL, forming a light yellow emulsion. The emulsion was diluted in optiMem to provide concentrations of 5, 2.5, 1.25, 0.625 and 0.31 μg/mL retinol. Untreated and detergent controls were included for comparison. Using a Presto Blue assay, adult human dermal fibroblast (HDFa) cells (5 k per well) were exposed to the solutions for 24 h.
Experiment 2: A solution of retinol (20 mg/mL) in 1,2-propanediol was prepared. The solution was diluted to 2 mg/mL, forming an off-white emulsion. The emulsion was diluted in optiMem to provide concentrations of 10, 5, 2.5, 1.25, 0.625 and 0.31 μg/mL retinol. Untreated and detergent controls were included for comparison. Using a WST-1 probe, HDFa cells (5 k per well) were exposed to the solutions for 24 h.
Experiment 3: A solution of retinol (20 mg/mL) in ethanol (absolute) was prepared. The solution was diluted to 2 mg/mL, forming an light yellow emulsion. The emulsion was diluted in optiMem to provide concentrations of 10, 5, 2.5, 1.25, 0.625 and 0.31 μg/mL retinol. Untreated and detergent controls were included for comparison. Using a WST-1 probe, HDFa cells (5 k per well) were exposed to the solutions for 24 h.

SMILES: C=C(C)[C@@H]1CCC(C)=C[C@H]1c1c(O)cc(CCCCC)cc1O [CBD, cannabidiol]
- log P [1]: ~6.3

SMILES: CC1=C(/C=C/C(C)=C/C=C/C(C)=C/CO)C(C)(C)CCC1 [retinol, Retinol]
- concentration at which retinol is cytotoxic to the HDFa cell line ([2]; 5 k cells per well): ≥ 10000 ng/mL
- cytotoxicity at concentration below 10 μg/mL ([2]; concentration below 10 μg/mL): only little, if any, cytotoxicity
